From patent US20230295201A1 (Gilead Sciences, Inc., priority 2020, published 2023)
Like-named read-outs stand apart in the source and are kept apart here.

What was measured:
Assay type in all cases: cell-based
HRV16 = HRV16 HELA EC50 (cytopathic effect in H1-HeLa cells)
Method in brief: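 Read-out is luminescent cell viability (CellTiter-Glo) after 96 h of infection at 33 °C, scaled between uninfected and infected-untreated wells. Before infection with titrated virus, compounds went onto H1-HeLa cells as triplicate 3-fold dilution series.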

DENV2 replicon = test: DENV-2 Huh-7 Rep EC50 (replicon luminescence); details: read-out: DENV-2 Huh-7 Rep EC50
Method in brief: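 EC50 derived from luminescence dose-response, normalised to DMSO-only 0% inhibition wells, after 1.5 h with EnduRen substrate. Compounds were first exposed for 48 h at 37° C to DENV2 replicon Huh-7 cells (5,000/well).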

RSV A2 = test: RSV NHBE EC50 (RSV A2 antiviral assay in normal human bronchial epithelial cells); details: read-out: RSV NHBE EC50
RSV strain A2 = test: RSV HEp-2 EC50 (infectious cytopathic cell protection assay); details: read-out: RSV HEp-2 EC50
Method in brief: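 Percent inhibition of RSV-induced cytopathic effect came from remaining cell viability (CellTiter-Glo luminescence) after 4 days at 37° C. Compounds in 3-fold serial dilutions were exposed to an infectious mix of titered A2 virus and HEp-2 cells at 50,000/ml, with 0% and 100% inhibition control standards.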

[1] = H1-HeLa cells, 96 h, 33° C.; read-out: HRV16 HELA EC50
[2] = 96 h, H1-HeLa cells, 33° C., read-out: HRV16 HELA EC50
[3] = Dengue virus, DENV2, Huh-7, 48 h, Huh-7 replicon cells, 48 hours
[4] = human respiratory syncytial virus, NHBE, 96 h, NHBE cells, RSV A2, 4 days
[5] = human respiratory syncytial virus, HEp-2, 96 h, HEp-2 cells, RSV A2, 4 days
[6] = 96 h, read-out: HRV16 HELA EC50
[7] = Dengue virus, DENV2, Huh-7, 48 h
[8] = human respiratory syncytial virus, NHBE, 96 h
[9] = human respiratory syncytial virus, HEp-2, 96 h

| SMILES | EC50 (HRV16; [1]) [nM] | EC50 (DENV2 replicon; Huh-7 replicon cells, 48 hours) [nM] | EC50 (RSV A2; NHBE cells, RSV A2, 4 days) [nM] | EC50 (RSV strain A2; HEp-2 cells, RSV A2, 4 days) [nM] | EC50 (HRV16; [2]) [nM] | EC50 (DENV2 replicon; [3]) [nM] | EC50 (RSV A2; [4]) [nM] | EC50 (RSV strain A2; [5]) [nM] | further results |
| --- | --- | --- | --- | --- | --- | --- | --- | --- | --- |
| CC(C)(C)C(=O)OCCNP(=O)(OCC1(C#N)OC(c2ccc3c(N)ncnn23)C(O)C1O)Oc1ccccc1 (single isomer, unassigned) [Example 12] | 1930 | > 50000 | 29 | 244 |  |  |  |  |  |
| C[C@H](N[P@@](=O)(OC[C@@]1(C#N)O[C@@H](c2ccc3c(N)ncnn23)[C@H](O)[C@@H]1O)Oc1ccccc1)C(=O)O[C@H]1CC[C@H](C(F)(F)F)CC1 (single isomer, unassigned) [Example 17] |  |  |  |  | 489 | 53700 | 88 | 308 |  |
| CCCOC(=O)C(C)NP(=O)(OCC1(C#N)OC(c2ccc3c(N)ncnn23)C(O)C1O)Oc1ccccc1 (single isomer, unassigned) [Example 46] | 487 | > 20800 | 393 | 82 |  |  |  |  |  |
| CCCOC(=O)C(C)NP(=O)(OCC1(C#N)OC(c2ccc3c(N)ncnn23)C(O)C1O)Oc1ccccc1 (single isomer, unassigned) [Example 47] | 560 | 9190 | 162 | 51 |  |  |  |  |  |
| C[C@H](NP(=O)(OC[C@@]1(C#N)O[C@@H](c2ccc3c(N)ncnn23)[C@H](O)[C@@H]1O)Oc1ccccc1)C(=O)OC1CCC1 (single isomer, unassigned) [Example 50] |  |  |  |  | 464 | 6920 | 498 | 44 |  |
| C[C@H](NP(=O)(OC[C@@]1(C#N)O[C@@H](c2ccc3c(N)ncnn23)[C@H](O)[C@@H]1O)Oc1ccccc1)C(=O)OC1CCOCC1 (single isomer, unassigned) [Example 56] |  |  |  | 4170 | 7960 | > 50000 | 2240 |  |  |
| C[C@H](NP(=O)(OC[C@@]1(C#N)O[C@@H](c2ccc3c(N)ncnn23)[C@H](O)[C@@H]1O)Oc1ccccc1)C(=O)OC1CCOCC1 (single isomer, unassigned) [Example 57] | 5480 | > 50000 | > 4180 | 1480 |  |  |  |  |  |
| CC(C)OC(=O)[C@H](C)N[P@@](=O)(OC[C@@]1(C#N)O[C@@H](c2ccc3c(N)ncnn23)[C@H](O)[C@@H]1O)Oc1ccccc1 (single isomer, unassigned) [Example 78] |  |  |  |  | 2260 | > 50000 | 1770 | 2040 |  |
| CCC(CC)COC(=O)[C@@H](C)NP(=O)(OC[C@@]1(C#N)O[C@@H](c2ccc3c(N)ncnn23)[C@H](O)[C@@H]1O)Oc1ccccc1 (single isomer, unassigned) [Example 84] | 19900 | > 50000 | 1130 | 8070 |  |  |  |  |  |
| CC[C@H](NP(=O)(OC[C@@]1(C#N)O[C@@H](c2ccc3c(N)ncnn23)[C@H](O)[C@@H]1O)Oc1ccccc1)C(=O)OC1CCCC1 (single isomer, unassigned) [Example 111] |  |  | > 1480 | 3970 | 25300 | > 50000 |  |  |  |
| N#C[C@]1(COP(=O)(NCC(=O)OC2CCCC2)Oc2ccccc2)O[C@@H](c2ccc3c(N)ncnn23)[C@H](O)[C@@H]1O (single isomer, unassigned) [Example 113] |  |  |  |  | 2640 | 42700 | 352 | 611 |  |
| N#C[C@]1(COP(=O)(NCC(=O)OC2CCCC2)Oc2ccccc2)O[C@@H](c2ccc3c(N)ncnn23)[C@H](O)[C@@H]1O (single isomer, unassigned) [Example 114] | 4700 | > 50000 | 255 | 974 |  |  |  |  |  |
| CCC(CC)COC(=O)[C@H](CC(C)C)NP(=O)(OC[C@@]1(C#N)O[C@@H](c2ccc3c(N)ncnn23)[C@H](O)[C@@H]1O)Oc1ccccc1 (single isomer, unassigned) [Example 129] |  |  | > 5000 | 42900 | 41600 | 26700 |  |  |  |
| C[C@H](NP(=O)(OC[C@@]1(C#N)O[C@@H](c2ccc3c(N)ncnn23)[C@H](O)[C@@H]1O)Oc1ccccc1)C(=O)OC1CCCCCC1 (single isomer, unassigned) [Example 136] |  |  | 95 | 2770 | 577 | 51100 |  |  |  |
| C[C@H](NP(=O)(OC[C@@]1(C#N)O[C@@H](c2ccc3c(N)ncnn23)[C@H](O)[C@@H]1O)Oc1ccccc1)C(=O)OC1CCC(F)(F)CC1 (single isomer, unassigned) [Example 176] |  | 28600 | 1640 | 161 | 547 |  |  |  |  |
| C[C@H](NP(=O)(OC[C@@]1(C#N)O[C@@H](c2ccc3c(N)ncnn23)[C@H](O)[C@@H]1O)Oc1ccccc1)C(=O)O[C@H]1CC[C@@H](C(F)(F)F)CC1 (single isomer, unassigned) [Example 180] |  |  | 833 | 142 | 851 | 6620 |  |  |  |
| C[C@@H](NP(=O)(OC[C@@]1(C#N)O[C@@H](c2ccc3c(N)ncnn23)[C@H](O)[C@@H]1O)Oc1ccccc1)C(=O)O[C@H]1CC[C@H](C(F)(F)F)CC1 (single isomer, unassigned) [Example 195] | 2550 |  |  |  |  | > 100000 | 678 | 2590 |  |
| CCC(CC)COC(=O)[C@H](C)N[P@@](=O)(OC[C@@]1(C#N)O[C@@H](c2ccc3c(N)ncnn23)[C@H](O)[C@@H]1O)Oc1ccccc1 (single isomer, unassigned) [Example 207] |  |  |  |  | 183 | 4840 | 91 | 124 |  |
| CCOC(=O)C1CCCN1P(=O)(OC[C@@]1(C#N)O[C@@H](c2ccc3c(N)ncnn23)[C@H](O)[C@@H]1O)Oc1ccccc1 (stereo in doubt) [Example 117, (2R)-ethyl 1-((((2R,3S,4R,5S)-5-(4-aminopyrrolo[2,1-f][1,2,4]triazin-7-yl)-2-cyano-3,4-dihydroxytetrahydrofuran-2-yl)methoxy)(phenoxy)phosphoryl)pyrrolidine-2-carboxylate] |  |  |  |  |  |  |  |  | EC50 (HRV16; [6]): > 100000 nM; EC50 (DENV2 replicon; [7]): > 100000 nM; EC50 (RSV A2; [8]): > 5000 nM; EC50 (RSV strain A2; [9]): > 100000 nM |
| CCCCOC(=O)C1CCCN1P(=O)(OC[C@@]1(C#N)O[C@@H](c2ccc3c(N)ncnn23)[C@H](O)[C@@H]1O)Oc1ccccc1 (stereo in doubt) [Example 124, (2R)-butyl 1-((((2R,3S,4R,5S)-5-(4-aminopyrrolo[2,1-f][1,2,4]triazin-7-yl)-2-cyano-3,4-dihydroxytetrahydrofuran-2-yl)methoxy)(phenoxy)phosphoryl)pyrrolidine-2-carboxylate] |  |  |  |  |  |  |  |  | EC50 (HRV16; [6]): > 86400 nM; EC50 (DENV2 replicon; [7]): > 100000 nM; EC50 (RSV A2; [8]): > 5000 nM; EC50 (RSV strain A2; [9]): > 100000 nM |
| CCOC(=O)[C@H](Cc1ccccc1)NP(=O)(OC[C@@]1(C#N)O[C@@H](c2ccc3c(N)ncnn23)[C@H](O)[C@@H]1O)Oc1ccccc1 (stereo partly drawn) [Example 3, (2S)-ethyl 2-(((((2R,3S,4R,5S)-5-(4-aminopyrrolo[2,1-f][1,2,4]triazin-7-yl)-2-cyano-3,4-dihydroxytetrahydrofuran-2-yl)methoxy)(phenoxy)phosphoryl)amino)-3-phenylpropanoate] |  |  |  |  | 8960 | > 100000 | 1690 | 4090 |  |
| C[C@H](NP(=O)(N[C@@H](C)C(=O)OC1CCCCC1)OC[C@@]1(C#N)O[C@@H](c2ccc3c(N)ncnn23)[C@H](O)[C@@H]1O)C(=O)OC1CCCCC1 [Example 14] | 12400 |  |  |  |  |  |  |  | EC50 (DENV2 replicon; [7]): > 100000 nM; EC50 (RSV A2; human respiratory syncytial virus, 96 h, NHBE cells, RSV A2, 4 days): 1270 nM; EC50 (RSV strain A2; human respiratory syncytial virus, 96 h, HEp-2 cells, RSV A2, 4 days): 3650 nM |
